In data set [1] the test system is Severe acute respiratory syndrome coronavirus 2. As to the kind of experiment: Inhibition of SARS-CoV-2 central replication transcription complex of nsp12/nsp7/nsp8(2) using RNA template as substrate assessed as decrease in RdRp polymerization at 3 mM pretreated for 10 mins followed by NTP addition measured after 20 mins by RNA extension assay relative to control. The conditions noted are these: time 30.0 min.

Data set [2] shares this test system. As to the kind of experiment: Inhibition of SARS-CoV-2 central replication transcription complex of nsp12/nsp7/nsp8(2) using RNA template as substrate assessed as decrease in RdRp polymerization at 62.5 to 1000 uM by RNA extension assay. To be noted: dose 62.5-1000 µM.
Data set [3] in a line: Cytotoxicity against African green monkey Vero E6 cells incubated for 72 hrs by CCK8 assay. In kind it is toxicity, cell-based, Vero C1008. To be noted: chlorocebus sabaeus. (Formazan colour is commonly taken as a measure of viable cells.)
Data set [4] in a line: Toxicity in K18-hACE2 transgenic mouse infected with SARS-CoV-2 Omicron BA.5 assessed as animal survival at 20 mg/kg compound administered 2 hrs post-infection and continued till 7 days post-infection. In kind it is organism-based. To be noted: in vivo, 166 h.
Data set [5] deals with Vero C1008. Briefly: Cytotoxicity against African green monkey Vero E6 cells at 100 uM incubated for 72 hrs by CCK8 assay. Format: toxicity, cell-based. The conditions noted are these: chlorocebus sabaeus, vero c1008, 72 h.
A short description of data set [6]: Prodrug conversion in Sprague-Dawley rat assessed as Tmax of nucleoside triphosphate at 40 mg/kg, po measured after 0.5 to 24 hrs by LC-MS/MS analysis. In kind it is ADME, organism-based. To be noted: in vivo, time 0.5-24 hrs.
A short description of data set [7]: Cytotoxicity against HPAEpiC cells incubated for 72 hrs by CCK8 assay. In kind it is toxicity, cell-based. The conditions noted are these: human.
Data set [8] in a line: Prodrug conversion in Sprague-Dawley rat assessed as AUC (0 to infinity) of nucleoside triphosphate at 40 mg/kg, po measured after 0.5 to 24 hrs by LC-MS/MS analysis. Format: ADME, organism-based. To be noted: in vivo, time 0.5-24 hrs.
Data set [9] in a line: Prodrug conversion in Sprague-Dawley rat assessed as Cmax of nucleoside triphosphate at 40 mg/kg, po measured after 0.5 to 24 hrs by LC-MS/MS analysis. Format: ADME, organism-based. To be noted: in vivo, time 0.5-24 hrs.
A short description of data set [10]: Acute toxicity in Sprague-Dawley rat assessed as damage in heart at 500 to 2000 mg/kg, po measured for 14 days by H and E staining based analysis. To be noted: in vivo, 336 h, dose 500-2000 mg/kg, time 14 day. In kind it is organism-based.
A short description of data set [11]: Acute toxicity in Sprague-Dawley rat assessed as blood biochemical change at 500 to 2000 mg/kg, po measured for 14 days. In kind it is organism-based. To be noted: in vivo, 336 h, dose 500-2000 mg/kg, time 14 day.
The nature of data set [12]: Prodrug conversion in Sprague-Dawley rat assessed as half life of nucleoside triphosphate at 40 mg/kg, po measured after 0.5 to 24 hrs by LC-MS/MS analysis. In kind it is ADME, organism-based. To be noted: in vivo, time 0.5-24 hrs.
Data set [13] can be described thus: Acute toxicity in Sprague-Dawley rat assessed as side effects at 500 to 2000 mg/kg, po measured for 14 days. To be noted: in vivo, 336 h, dose 500-2000 mg/kg, time 14 day. Format: organism-based.
A short description of data set [14]: Acute toxicity in Sprague-Dawley rat assessed as hematological change at 500 to 2000 mg/kg, po measured for 14 days. In kind it is organism-based. The conditions noted are these: in vivo, 336 h, dose 500-2000 mg/kg, time 14 day.
Data set [15] can be described thus: Toxicity in K18-hACE2 transgenic mouse infected with SARS-CoV-2 Omicron BA.5 assessed as animal survival at 40 to 60 mg/kg compound administered 2 hrs post-infection and continued till 7 days post-infection. In kind it is organism-based. The conditions noted are these: in vivo, 166 h, dose 40-60 mg/kg.
Data set [16] can be described thus: Acute toxicity in Sprague-Dawley rat assessed as damage in kidney at 500 to 2000 mg/kg, po measured for 14 days by H and E staining based analysis. Format: organism-based. The conditions noted are these: in vivo, 336 h, dose 500-2000 mg/kg, time 14 day.
The nature of data set [17]: Toxicity in K18-hACE2 transgenic mouse infected with SARS-CoV-2 Omicron BA.5 assessed as body weight change at 40 to 60 mg/kg compound administered 2 hrs post-infection and continued till 7 days post-infection. Format: organism-based. The conditions noted are these: in vivo, 166 h, dose 40-60 mg/kg.
Data set [18] in a line: Acute toxicity in Sprague-Dawley rat assessed as body weight change at 500 to 2000 mg/kg, po measured for 14 days. To be noted: in vivo, 336 h, dose 500-2000 mg/kg, time 14 day. In kind it is organism-based.
Data set [19] can be described thus: Acute toxicity in Sprague-Dawley rat assessed as drug tolerance upto 2000 mg/kg, po measured for 14 days. Format: organism-based. The conditions noted are these: in vivo, 336 h, time 14 day.
Data set [20] can be described thus: Prodrug conversion in Sprague-Dawley rat assessed as AUClast of nucleoside triphosphate at 40 mg/kg, po measured after 0.5 to 24 hrs by LC-MS/MS analysis. Format: ADME, organism-based. To be noted: in vivo, time 0.5-24 hrs.
The nature of data set [21]: Acute toxicity in Sprague-Dawley rat assessed as animal mortality at 500 to 2000 mg/kg, po measured for 14 days. In kind it is organism-based. To be noted: in vivo, 336 h, dose 500-2000 mg/kg, time 14 day.
A short description of data set [22]: Acute toxicity in Sprague-Dawley rat assessed as damage in lung at 500 to 2000 mg/kg, po measured for 14 days by H and E staining based analysis. Format: organism-based. To be noted: in vivo, 336 h, dose 500-2000 mg/kg, time 14 day.
For data set [23], the target named is Nucleoprotein (Severe acute respiratory syndrome coronavirus 2) (UniProt P0DTC9). Briefly: Inhibition of SARS-CoV-2 N protein by Western blot analysis. The conditions noted are these: dose 1-250 nM. On the technique in general: In western blotting, separated proteins are transferred to a membrane and probed.
The test system of data set [24] is SARS-CoV-2. Briefly: Antiviral activity against SARS-CoV-2 Omicron BA.5 infected in K18-hACE2 transgenic mouse assessed as protection against viral infection compound administered 2 hrs post-infection and continued till 7 days post-infection. In kind it is functional, organism-based. To be noted: Severe acute respiratory syndrome coronavirus 2, dose 20-60 mg/kg, time 166.0 hrs.

The nature of data set [25]: Acute toxicity in Sprague-Dawley rat assessed as damage in liver at 500 to 2000 mg/kg, po measured for 14 days by H and E staining based analysis. To be noted: in vivo, 336 h, dose 500-2000 mg/kg, time 14 day. Format: organism-based.
Data set [26] can be described thus: Acute toxicity in Sprague-Dawley rat assessed as damage in spleen at 500 to 2000 mg/kg, po measured for 14 days by H and E staining based analysis. Format: organism-based. The conditions noted are these: in vivo, 336 h, dose 500-2000 mg/kg, time 14 day.

The source made the active and inactive calls. The rule behind the calls is not given here. Bounds are passed on as bounds.

As usually defined, the inhibition is the relative decrease from the control value, in per cent. Broadly, the CC50 is the concentration that lowers cell viability or growth by half. A word on the Tmax: it is the time from dosing to the highest level. Usually Cmax stands for the peak of the concentration-time curve.

For `CNc1nc(N)nc2c1ncn2[C@@H]1O[C@H](COP(=O)(O)OP(=O)(O)OP(=O)(O)OP(=O)(O)O)[C@@H](O)[C@]1(F)CF`, the inhibition in [1] was 100%. Further, the inhibition result in data set [2] was “inactive”.

`CCC(CC)COC(=O)[C@H](C)N[P@](=O)(OC[C@H]1O[C@@](C#N)(c2ccc3c(N)ncnn23)[C@H](O)[C@@H]1O)Oc1ccccc1` [REMDESIVIR] yielded a CC50 at 72 h in data set [3] of 42 µM.

As to `CNc1nc(N)nc2c1ncn2[C@@H]1O[C@H](CO[P@@](=O)(N[C@@H](C)C(=O)OC(C)C)Oc2ccccc2)[C@@H](O)[C@]1(F)CF.O=S(=O)(O)O`, the Survival in [4] is on record as > 50%; in data set [15] it was 100%. The Activity result in data set [5], in data set [10], in [11], in [13], in data set [14] and in data set [16] was “Non-toxic” in each case. Moreover, the Activity entry is “Non-toxic” in data set [17]; “Non-toxic” in data set [18]; “Non-toxic” in data set [19]; “Non-toxic” in data set [21]; “Non-toxic” in [22]; “Dose-dependent-effect” in data set [24]. Also, the Activity entry in data set [25] and in data set [26] was “Non-toxic” throughout. The Tmax in data set [6] was 2.67 h. For the same molecule, in data set [7], the CC50 at 72 h was > 200 µM. The AUC in [8] was determined as 223 µg·h/g. Besides, in data set [9], the Cmax amounted to 6.5 µg/g. Besides, the t1/2 in data set [12] is 45.7 h. In [20], the AUClast amounted to 66.13 µg·h/g. In addition, in [23], the inhibition result was “Dose-dependent-effect”.

The values above are taken from ChEMBL document CHEMBL6087487, “Discovery of a 2'-α-Fluoro-2'-β-C-(fluoromethyl) Purine Nucleotide Prodrug as a Potential Oral Anti-SARS-CoV-2 Agent” (J Med Chem, 2025).
